Key:
Assay in all cases: Screening in cancer cell strains, cell survival rate with PrestoBlue
Type in all cases: cell-based
[1] = tested on: large intestine cancer cell strain HCT116 (p53 deletion); conditions: Day 5 after transfection with RNAiMAX, compared with miR-34a-5p
Experimental: (§1) The 349 types of aging induction miRNA (mirVana; Ambion) obtained from screening were transfected into various cancer cell strains (large intestine cancer cell strain HCT116 (p53 wildtype and p53 deletion), pancreatic cancer cell strains BxPC-3 and CFPAC-1, and tongue cancer cell strain HSC-4) with an auto dispenser Bravo (Agilent).
(§2) Transfection was carried out with the following protocol.
(§3) 1: To 70 μL of serum free medium (SFM) was added 0.35 μL of RNAiMAX (Invitrogen).
(§4) 2: The solution from 1 was added to a 96-well plate (μ-plate; ibidi) with Bravo.
(§5) 3: To 2 was added 0.7 μL of miRNA (Stock Conc. 200 nM) with Bravo, and this was mixed by pipetting.
(§6) 4: This was incubated at room temperature for 20 minutes.
(§7) 5: A cell suspension diluted to 3.5×10^4 cells/mL was dispensed at 70 μL each with Bravo.
(§8) 6: This was incubated at 37° C. under 5% CO2 condition.
(§9) Setting the day of transfection as Day 0, on Day 5 the cell survival rate was evaluated with PrestoBlue (Invitrogen). The operating protocol is shown below.
(§10) 1. The medium was exchanged to a medium comprising PrestoBlue diluted 20-folds, and this was incubated at 37° C. for 1 hour. 2. The fluorescence value (Ex/Em=560 nm/590 nm) was measured with Enspire (Perkin Elmer).
(§11) 3. The cell survival rate was determined by setting the fluorescence value obtained from the well with only the reagent as the background.

[2] = tested on: large intestine cancer cell strain HCT116 (p53 wildtype); conditions: Day 5 after transfection with RNAiMAX, compared with miR-34a-5p
Experimental: as §1, §2, §3, §4, §5, §6, §7, §8, §9, §10, §11

[3] = tested on: pancreatic cancer cell strain BxPC-3; conditions: BxPC-3, Day 5 after transfection with RNAiMAX, compared with miR-34a-5p
Experimental: as §1, §2, §3, §4, §5, §6, §7, §8, §9, §10, §11

[4] = tested on: pancreatic cancer cell strain CFPAC-1; conditions: CFPAC-1, Day 5 after transfection with RNAiMAX, compared with miR-34a-5p
Experimental: as §1, §2, §3, §4, §5, §6, §7, §8, §9, §10, §11

[5] = tested on: tongue cancer cell strain HSC-4; conditions: HSC-4, Day 5 after transfection with RNAiMAX, compared with miR-34a-5p
Experimental: as §1, §2, §3, §4, §5, §6, §7, §8, §9, §10, §11

**Q.** What does the source list for “miR-3140-3p: Mature-miRNA, AGCUUUUGGGAAUUCAGGUAGU (SEQ ID NO. 2) (listed as RNA, chemistry not given here; listed as Homo sapiens)”?
**A.** suppression of cell proliferation (cell survival rate, PrestoBlue) [1]: suppress cell proliferation more significantly than miR-34-5p; suppression of cell proliferation (cell survival rate, PrestoBlue) [2]: suppress cell proliferation more significantly than miR-34-5p; suppression of cell proliferation (cell survival rate, PrestoBlue) [3]: suppress cell proliferation more significantly than miR-34-5p; suppression of cell proliferation (cell survival rate, PrestoBlue) [4]: suppress cell proliferation more significantly than miR-34-5p; suppression of cell proliferation (cell survival rate, PrestoBlue) [5]: suppress cell proliferation more significantly than miR-34-5p

Source: patent US11311568B2, “Therapeutic pharmaceutical composition for cancer including miRNA” (Purmx Therapeutics, Inc., priority 2017, dated 2022)
